# Source: patent US4778790A, “Perhydrothiazepine and perhydroazepine derivatives and their therapeutic use” (Sankyo Company Limited, priority 1986, dated 1988)
# Counter-ions that a name gives are not always drawn.
# Target: T1, ACE extracted from rabbit lungs (Oryctolagus cuniculus, UniProt P12822)
# T1 construct: ACE extracted from rabbit lungs; from tissue; host or cells: rabbit lung
# T1 sequence (P12822 34-1310): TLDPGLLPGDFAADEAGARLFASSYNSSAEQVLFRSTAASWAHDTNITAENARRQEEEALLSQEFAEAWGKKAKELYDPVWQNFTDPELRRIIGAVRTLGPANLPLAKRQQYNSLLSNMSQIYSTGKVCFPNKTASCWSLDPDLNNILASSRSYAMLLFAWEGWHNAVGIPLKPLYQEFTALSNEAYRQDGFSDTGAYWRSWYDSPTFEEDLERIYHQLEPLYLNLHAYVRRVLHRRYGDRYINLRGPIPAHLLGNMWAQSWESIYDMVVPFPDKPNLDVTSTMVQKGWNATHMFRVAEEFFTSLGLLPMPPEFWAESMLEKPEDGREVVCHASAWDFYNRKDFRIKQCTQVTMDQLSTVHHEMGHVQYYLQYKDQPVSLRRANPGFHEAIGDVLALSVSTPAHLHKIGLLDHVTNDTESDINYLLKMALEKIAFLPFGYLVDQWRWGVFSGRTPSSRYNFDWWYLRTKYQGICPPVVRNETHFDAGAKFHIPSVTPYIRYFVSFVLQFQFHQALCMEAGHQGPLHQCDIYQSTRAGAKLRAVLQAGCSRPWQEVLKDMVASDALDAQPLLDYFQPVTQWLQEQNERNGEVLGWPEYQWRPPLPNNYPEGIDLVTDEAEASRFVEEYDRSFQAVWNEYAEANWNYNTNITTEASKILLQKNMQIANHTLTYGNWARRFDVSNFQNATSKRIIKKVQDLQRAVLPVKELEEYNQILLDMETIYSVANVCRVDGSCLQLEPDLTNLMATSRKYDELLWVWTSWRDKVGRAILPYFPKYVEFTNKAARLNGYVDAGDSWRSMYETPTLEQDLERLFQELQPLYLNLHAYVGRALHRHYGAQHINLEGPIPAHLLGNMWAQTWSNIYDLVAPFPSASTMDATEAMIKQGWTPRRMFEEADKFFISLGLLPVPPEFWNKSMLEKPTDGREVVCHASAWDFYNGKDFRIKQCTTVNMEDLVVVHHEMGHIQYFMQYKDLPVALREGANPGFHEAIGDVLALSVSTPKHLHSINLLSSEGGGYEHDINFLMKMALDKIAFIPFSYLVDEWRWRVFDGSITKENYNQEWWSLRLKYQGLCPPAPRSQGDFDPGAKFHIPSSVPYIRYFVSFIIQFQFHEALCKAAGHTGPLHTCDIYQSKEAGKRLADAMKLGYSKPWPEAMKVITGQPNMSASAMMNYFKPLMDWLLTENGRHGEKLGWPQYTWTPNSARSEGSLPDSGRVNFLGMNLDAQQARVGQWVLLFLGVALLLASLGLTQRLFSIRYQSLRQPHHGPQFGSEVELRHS
# Test: in vitro ACE inhibition (hippurylhistidylleucine substrate, procedure of Cushman et al.)
# Type: biochemical
# Details: rabbit lung ACE, borate buffer with NaCl, pH 8.3, 37° C., 30 minutes, read-out: IC50 (concentration required to inhibit the activity of ACE by 50% in vitro)
# Description: As noted above, the compounds of the present invention have the ability to inhibit the activity of ACE, the enzyme which converts angiotensin I to angiotensin II and also inactivates bradykinin. The physiological activity of the compounds of the invention can be evaluated by determining the concentration of the test compound required to inhibit the activity of ACE by 50% in vitro (IC50), for example by the procedure of D. W. Cushman et al. [Biochemical Pharmacology, 20, 1637 (1971)]. Specifically, solutions of ACE extracted from rabbit lungs and, as substrate, hippurylhistidylleucine, to which had been added the test compound at various concentrations, were added to a borate buffer solution containing sodium chloride, and the pH was adjusted to a value of 8.3. The enzymatic reaction was allowed to proceed at 37° C. for 30 minutes, after which time the reaction was terminated by adding 1N aqueous hydrochloric acid. […] The residual hippuric acid was dissolved in water. The amount of hippuric acid in the resulting aqueous solution was determined by the absorbency to ultraviolet radiation at 228 nm. The resulting values were then plotted to form a curve indicating the relationship between the amount of hippuric acid formed and the concentration of the test compound. The IC50 value can be obtained by reading on this curve the concentration of the test compound which reduces the amount of hippuric acid formed to one half of that formed when no test compound is present.
row,IC50,SMILES
1,3.1 nM,"NCCCCCCC(NC1CSC(c2ccccc2)CN(CC(=O)O)C1=O)C(=O)O [C, rel-α-}6(R)-[7-Amino-1(S)-carboxyheptylamino]-5-oxo-2(R)-phenylperhydro-1,4-thiazepin-4-yl}acetic acid]"
2,1.6 nM,NCCCCCCC[C@H](N[C@H]1CS[C@H](c2cccs2)CN(CC(=O)O)C1=O)C(=O)O [D]
3,3.3 nM,"NCCCC[C@H](N[C@H]1CS[C@H](c2cccs2)CN(CC(=O)O)C1=O)C(=O)O [A, α-{6(R)-[5-Amino-1(S)-carboxypentylamino]-5-oxo-2(S)-(2-thienyl)perhydro-1,4-thiazepin-4-yl}acetic acid dihydrochloride]"
4,2 nM,"NCCCCCC[C@H](N[C@H]1CS[C@H](c2cccs2)CN(CC(=O)O)C1=O)C(=O)O [B, α-{6(R)-[7-Amino-1(S)-carboxyheptylamino]-5-oxo-2(S)-(2-thienyl)perhydro-1,4-thiazepin-4-yl}acetic acid]"
5,3.7 nM,"O=C(O)CN1C[C@@H](c2ccccc2)CC[C@H](N[C@@H](CCCCC2CCNCC2)C(=O)O)C1=O (relative stereo) [G, rel-α-{3(S)-[1(S)-Carboxy-5-(4-piperidyl)pentylamino]-2-oxo-6(R)-phenylperhydroazepin-1-yl}acetic acid]"
6,4.1 nM,"NCCCCCCCC(NC1CCC(c2ccccc2)CN(CC(=O)O)C1=O)C(=O)O [E, rel-α-{3(S)-[8-Amino-1(S)-carboxyoctylamino]-2-oxo-6(R)-phenylperhydrozepin-1-yl}acetic acid]"
7,1.6 nM,"O=C(O)CN1C[C@@H](c2cccs2)SC[C@H](N[C@@H](CCCCC2CCNCC2)C(=O)O)C1=O [F, α-{6(R)-[1(S)-Carboxy-5-(4-piperidyl)pentylamino]-5-oxo-2(S)-(2-thienyl)perhydro-1,4-thiazepin-4-yl}acetic acid]"
